# According to patent US10980876B2, “Conjugate vaccine targeting a disease-causing biological protein” (OSAKA UNIVERSITY, priority 2016, dated 2021):
# Where two headings read alike, the source gives them in different places.
# Columns and labels:
# DPP4 epitope peptide [1] = tested on: DPP4 epitope peptide
# Procedure: For this test, the following two groups were prepared: a physiological saline group and an OSK-1-DPP4 conjugate group (100 μg/mouse) (6 animals per group). Test samples were intracutaneously administered to Balb/c mice 3 times at 2-week intervals. Before the first administration and every 2 weeks until 8 weeks after the first administration, blood samples were collected, and the antibody titer against the DPP4 epitope peptide was measured by ELISA.
# For this test, the following three groups were prepared: a KLH-DPP4 conjugate group (20 μg/mouse), an OSK-1-DPP4 conjugate group (100 μg/mouse) and an OSK-1-DPP4 conjugate (100 μg/mouse) plus Alum (Alhydrogel 2% (InvivoGen) 1 mg/mouse) group (2 animals per group). […] Before the first administration, every 2 weeks until 6 weeks after the first administration, and 12 weeks after the first administration, blood samples were collected, and the antibody titer against the DPP4 epitope peptide was measured by ELISA.
# Six types of OSK-1-DPP4 conjugates containing different mouse DPP4 epitope peptides (SEQ ID NOs: 3, 5, 6, 8, 18 and 19) were intracutaneously administered to Balb/c mice at a dose of 100 μg per animal 3 times at 2-week intervals. Before the first administration and every 2 weeks after the first administration, blood samples were collected, and the antibody titer against each epitope peptide was measured by ELISA. […]
# DPP4 epitope peptide [2] = conditions: 4 administrations; blood at 11 weeks; FIG. 3
# Procedure: For this test, the following three groups were prepared: an OSK-1-DPP4 conjugate group (100 μg/mouse), a KLH-DPP4 conjugate (20 μg/mouse) plus Alum (Alhydrogel 2% (InvivoGen) 1 mg/mouse) group and a KLH-DPP4 conjugate (20 μg/mouse) plus OSK-1 (100 μg/mouse) group. Test samples were intracutaneously administered to Balb/c mice 3 times at 2-week intervals and at 9 weeks after the start of the administration, 4 times in total. At 11 weeks after the start of the administration, blood samples were collected, and the titer of each IgG subclass of antibodies against the DPP4 epitope peptide was measured by ELISA.
# DPP4 = conditions: OSK-1-DPP4-17 100 μg/mouse; KLH-DPP4-17 20 μg/mouse mixed with Alum 1 mg/mouse; 4 administrations; 21 weeks; FIG. 8
# Procedure: To a KLH-DPP4-17 group of mice, KLH-DPP4-17 and Alum (Alhydrogel 2% (InvivoGen)) were intracutaneously administered as a mixture at doses of 20 μg/mouse and 1 mg/mouse, respectively. To an OSK-1-DPP4-17 group of mice, OSK-1-DPP4-17 was intracutaneously administered at a dose of 100 μg/mouse. In either group, the conjugate was intracutaneously administered to Balb/c mice 3 times at 2-week intervals, and the 4th administration was performed at 11 weeks after the first administration. At 21 weeks after the first administration, blood samples were collected, and the amount of serum IgE antibody against DPP4 was measured by ELISA.
# B16F10 melanoma cells [3] = conditions: vaccination once a week 4 times before implantation of B16F10 (1×10^5 cells/mouse)
# Procedure: In addition, the adjuvant effect of the OSK-1 peptide on the antitumor effect of a WT1 peptide vaccine was also examined. For this test, the following four groups were prepared: a physiological saline group, a WT1 peptide (100 μg/mouse) plus poly(I:C) (InvivoGen; Poly(I:C) HMW VacciGrade, 50 μg/mouse) group, a WT1 peptide (100 μg/mouse) plus OSK-1 peptide (100 μg/mouse) group and an OSK-1-WT1 conjugate (350 μg/mouse) group (6 animals per group). The vaccines were administered to C57BL/6J mice once a week, 4 times in total. One week after the 4th administration, B16F10 melanoma cells (1×10^5 cells/mouse) were implanted into the dorsal skin. The vaccines were administered again one week after the cell implantation. The body weight and the diameter of the tumor were measured twice a week after the cell implantation. The diameter of the tumor was measured using a digital caliper, and the tumor volume was calculated by the formula: (major axis)×(minor axis)^2.
# B16F10 melanoma cells [4] = conditions: 350 μg/mouse, vaccination started on day of implantation of B16F10 (3×10^5 cells/mouse)
# Procedure: The antitumor effect of the same OSK-1-WT1 conjugate as used in Reference Example 1 was assessed. For this test, the following four groups were prepared: a physiological saline group, a WT1 peptide (100 μg/mouse) plus poly(I:C) (InvivoGen; Poly (I:C) HMW VacciGrade, 50 μg/mouse) group, an OSK-1-WT1 conjugate (350 μg/mouse) group and a cisplatin (5 mg/kg) group (10 animals per group). B16F10 melanoma cells (3×10^5 cells/mouse) were implanted to C57BL/6J mice, and at the same day, the vaccines were intracutaneously administered into the dorsal skin. The day of cell implantation was designated as Day 0. The vaccines were administered on Day 7, Day 14, Day 21, Day 28 and Day 35. Twice a week after the cell implantation, the diameter of the tumor was measured using a digital caliper, and the tumor volume was calculated by the formula: (major axis)×(minor axis)^2.
Substance,"antibody production against the DPP4 epitope peptide (antibody titer, ELISA) (DPP4 epitope peptide [1]; 100 μg/mouse intracutaneously 3 times at 2-week intervals, blood until 8 weeks, FIG. 1)","antibody production-inducing capability (antibody titer against the DPP4 epitope peptide) (DPP4 epitope peptide [1]; OSK-1-DPP4 100 μg/mouse, KLH-DPP4 20 μg/mouse, Alum 1 mg/mouse, 3 times at 2-week intervals, up to 12 weeks, FIG. 2)",titer of each IgG subclass of antibodies against the DPP4 epitope peptide (DPP4 epitope peptide [2]),IgE production against the target protein (serum IgE antibody against DPP4) (DPP4),inhibitory effect on tumor growth (tumor volume) (B16F10 melanoma cells [3]; FIG. 4),survival benefit (survival rate) (B16F10 melanoma cells [3]; FIG. 5),inhibitory effect on tumor growth (tumor volume) (B16F10 melanoma cells [4]; FIG. 6),survival benefit (survival rate) (B16F10 melanoma cells [4]; FIG. 7)
Ac-ELKLIFLHRLKRLRKRLKRK-X-ENSTFESFG (X=ε-Acp) [OSK1-DPP4-17],antibody production against the DPP4 epitope peptide was observed,comparable to that of the KLH-DPP4 conjugate,"IgG2a and IgG2b, which are Th1-type IgG subclasses, were also produced at high levels in addition to IgG1",no IgE production against the target protein was observed,,,,
Ac-ELKLIFLHRLKRLRKRLKRK-X-RMFPNAPYL (X=ε-Acp) [OSK-1-WT1 conjugate],,,,,the inhibitory effect on tumor growth and the survival benefit were observed,the inhibitory effect on tumor growth and the survival benefit were observed,"modest, but the tumor volume was kept at lower levels than that of the physiological saline administration group (negative control) until Day 32",comparable to those in the WT1 peptide plus poly(I:C) group and the cisplatin group
